Reference: patent US6645973B1, “Spiro(2h-1-benzopyran-2,4-piperidine)derivatives as glycine transport inhibitors” (Akzo Nobel, priority 1999, dated 2003)
Structures can show the parent of a compound that is named as a salt.

Assays:
[1] = molecular target: T1, human GlyT-1b transporter (Homo sapiens, UniProt P48067); experiment: Glycine uptake in CHO cells heterologously expressing the human GlyT-1b transporter ([3H]glycine uptake); format: cell-based; conditions: CHO cells stably expressing hGlyT-1b, 10 minutes, 37° C.; for IC50: read-out: Inhibition of glycine transport by hGlyT-1, pIC50 (converted)
T1 construct: expressed in transfected cells; host or cells: CHO cells, stably transfected (pcDNA3, Geneticin selection)
T1 sequence (P48067 1-652 isoform P48067-3): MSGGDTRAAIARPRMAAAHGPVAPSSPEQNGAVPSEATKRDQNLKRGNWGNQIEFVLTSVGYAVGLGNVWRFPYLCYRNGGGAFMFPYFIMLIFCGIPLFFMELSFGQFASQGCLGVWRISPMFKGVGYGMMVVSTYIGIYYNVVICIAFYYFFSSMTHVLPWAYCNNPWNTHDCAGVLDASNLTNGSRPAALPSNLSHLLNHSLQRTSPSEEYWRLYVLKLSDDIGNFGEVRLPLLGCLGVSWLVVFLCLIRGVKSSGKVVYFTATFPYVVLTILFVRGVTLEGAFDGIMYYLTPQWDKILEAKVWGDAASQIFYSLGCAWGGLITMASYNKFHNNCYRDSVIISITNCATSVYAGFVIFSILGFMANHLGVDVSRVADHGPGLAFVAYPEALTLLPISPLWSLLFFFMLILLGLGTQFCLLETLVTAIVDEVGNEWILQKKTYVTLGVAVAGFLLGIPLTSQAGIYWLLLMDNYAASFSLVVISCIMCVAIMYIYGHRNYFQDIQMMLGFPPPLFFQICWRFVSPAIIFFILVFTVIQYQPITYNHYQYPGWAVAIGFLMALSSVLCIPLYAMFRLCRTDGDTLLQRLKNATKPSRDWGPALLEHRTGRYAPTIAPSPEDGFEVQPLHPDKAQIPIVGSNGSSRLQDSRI
Procedure: Method for Determination of Glycine Uptake in CHO Cells Heterologously Expressing the Human GlyT-1b Transporter
A: Cloning: cDNA was generated by PCR according to the method described by Kim, K.-M. et al. Mol. Pharmacol. 1994, 45, 608-617. Sequence was verified by dideoxy sequencing using the ALF DNA sequencer™ (Pharmacia) and cloned into the expression construct pcDNA3 (Invitrogen).
B: Transfection: Transfection of hGlyT-1b into CHO cells was performed using a standard calcium phosphate technique as described by Sambrook, J. et al. (1989) in Molecular Cloning: A Laboratory Manual, Cold Spring Harbor Laboratory, Cold Spring Harbor, N.Y.
C: Selection: Stably transfected cells were selected for 1 week in growth medium containing 1 mg.cm^−3 Geneticin. Individual clones were picked for further analysis and positives passaged routinely as described below.
D: Culture conditions: Cells stably expressing; the hGlyT-1b gene were cultured at 37° C. in a 5% C02 atmosphere in DMEM—NUT.MIX. F12 with Glutamax-1 (Gibco) containing Geneticin (0.5 mg.cm^−3, Gibco) and supplemented with 10% Fetalclone II (Hyclone). Maintenance culture was carried out in standard 80 cm^2 ventilated flasks (2×10^−6 m filter, Nunc) and cells were subcultured by trypsinisation (Sigma) when confluent.
E: Assay Procedure: Cells for uptake studies were plated in 96 well plates (17,000 cells per well) in the absence of Geneticin and cultured for 48 h before use. To measure glycine transport, cells were washed twice with Hanks' balanced salt solution (HBSS) pre-warmed to 37° C. and excess fluid removed before addition of test compounds dissolved in 0.200 cm^3 HBSS. Plates were incubated at 37° C. for 5 minutes before addition of [^3H]glycine (0.050′cm^3, 150×10^−6 M, 248 Bq.nmol^−1, NEN) and incubation continued for a further 10 minutes. Uptake was terminated by washing cells with ice-cold HBSS before removal of excess fluid and addition of 0.200 cm^3 scintillation cocktail to each well. Plates were sealed with adhesive film, shaken to ensure samples were homogenous before scintillation counting in a plate counter.
F: Analysis: Data were analysed using standard curve fitting procedures to produce a plC50 value for active compounds (where plC50 is the negative logarithm of the concentration of test compound causing 50% inhibition of uptake).

Structure (SMILES) | IC50 [1] [nM] | further results
CN(C)c1c(F)cc(C2=CC3(CCN(CC(=O)O)CC3)Oc3ccccc32)cc1F (as salt: hydrochloride) [Example 38, 1′-Carboxymethyl-4-(3,5-difluoro-4-dimethylaminophenyl)spiro[2H-1-benzopyran-2,4′-piperidine]hydrochloride] | – | melting point: 231 to 242 °C
O=C(O)CN1CCC2(C=C(c3ccc4ccccc4c3)c3ccccc3O2)CC1 (as salt: hydrochloride) [Example 10, 1′-Carboxymethyl-4-(2-naphthyl)spiro[2H-1-benzopyran-2,4′-piperidine]hydrochloride] | – | melting point: 253 to 264 °C
COc1ccc(C2=CC3(CCN(CC(=O)O)CC3)Oc3ccccc32)cc1F (as salt: hydrochloride) [Example 11, 1′-Carboxymethyl-4-(3-fluoro-4-methoxyphenyl)spiro[2H-1-benzopyran-2,4′-piperidine]hydrochloride] | – | melting point: 252 to 261 °C
CN(C)c1ccc(C2=CC3(CCN(CC(=O)O)CC3)Oc3ccccc32)cc1F (as salt: hydrochloride) [Example 37, 1′-Carboxymethyl-4-(4-dimethylamino-3-fluorophenyl)spiro[2H-1-benzopyran-2,4′-piperidine]hydrochloride] | – | melting point: 231 to 239 °C
COc1ccc(C2=CC3(CCN(CC(=O)O)CC3)Oc3ccccc32)cc1F [Example 11, 1′-Carboxymethyl-4-(3-fluoro-4-methoxyphenyl)spiro[2H-1-benzopyran-2,4′-piperidine]hydrochloride] | 631 | –
Cc1ccc(C2=CC3(CCN(CC(=O)O)CC3)Oc3ccccc32)cc1F [Example 28, 1′-Carboxymethyl-4-(3-fluoro-4-methylphenyl)spiro[2H-1-benzopyran-2,4′-piperidine]hydrochloride] | 316 | –
O=C(O)CN1CCC2(C=C(c3ccc(Cl)cc3)c3ccccc3O2)CC1 (as salt: hydrochloride) [Example 2, 1′-Carboxymethyl-4-(4-chlorophenyl)spiro[2H-1-benzopyran-2,4′-piperidine]hydrochloride] | – | melting point: 259 to 265 °C
CC(C)(C)c1ccc(C2=CC3(CCN(CC(=O)O)CC3)Oc3ccccc32)cc1 [Example 12, 1′-Carboxymethyl-4-(4-tert-butylphenyl)spiro[2H-1-benzopyran-2,4′-piperidine]hydrochloride] | 398 | –
O=C([O-])CN1CCC2(C=C(c3ccccc3)c3ccccc3O2)CC1.[Li+] | – | melting point: 280 to 281 °C
Cc1ccc(C2=CC3(CCN(CC(=O)O)CC3)Oc3cc(Cl)ccc32)cc1F [Example 35, 1′-Carboxymethyl-7-chloro-4-(3-fluoro-4-methylphenyl)spiro[2H-1-benzopyran-2,4′-piperidine]hydrochloride] | 501 | –
CCCCOc1ccc(C2=CC3(CCN(CC(=O)O)CC3)Oc3ccccc32)cc1F [Example 49, 1′-Carboxymethyl-4-(3-fluoro-4-n-butoxyphenyl)spiro[2H-1-benzopyran-2,4′-piperidine]hydrochloride] | 794 | –
C#CCOc1c(F)cc(C2=CC3(CCN(CC(=O)O)CC3)Oc3ccccc32)cc1F (as salt: hydrochloride) [Example 57, 1′-Carboxymethyl-4-(3,5-difluoro-4-propargyloxyphenyl)spiro[2H-1-benzopyran-2,4′-piperidine]hydrochloride] | – | melting point: 211 to 217 °C
Cl.O=C(O)CN1CCC2(C=C(c3ccc4c(c3)OCO4)c3ccccc3O2)CC1 [Example 14, 4-(1,3-Benzodioxolo)-1′-carboxymethylspiro[2H-1-benzopyran-2,4′-piperidine]hydrochloride] | – | Inhibition of glycine transport by hGlyT-1, pIC50 [1]: 6.1
Cl.O=C(O)CN1CCC2(C=C(c3ccc4c(c3)OC(F)(F)O4)c3ccccc3O2)CC1 [Example 33, 1′-Carboxymethyl-4-(2,2-difluoro-1,3-benzodioxolo)spiro[2H-1-benzopyran-2,4′-piperidine]hydrochloride] | – | Inhibition of glycine transport by hGlyT-1, pIC50 [1]: 6.2
O=C(O)CN1CCC2(C=C(c3ccc(Cl)c(F)c3)c3ccccc3O2)CC1 [Example 8, 1′-Carboxymethyl-4-(4-chloro-3-fluorophenyl)spiro[2H-1-benzopyran-2,4′-piperidine]hydrochloride] | 501 | –
O=C(O)CN1CCC2(C=C(c3ccc(Cl)cc3)c3ccccc3O2)CC1 [Example 2, 1′-Carboxymethyl-4-(4-chlorophenyl)spiro[2H-1-benzopyran-2,4′-piperidine]hydrochloride] | 1000 | –
O=C(O)CN1CCC2(C=C(c3ccc(Br)c(F)c3)c3ccccc3O2)CC1 [Example 39, 4-(4-Bromo-3-fluorophenyl)-1′-carboxymethylspiro[2H-1-benzopyran-2,4′-piperidine]hydrochloride] | 794 | –
O=C(O)CN1CCC2(C=C(c3ccc4ccccc4c3)c3ccccc3O2)CC1 [Example 10, 1′-Carboxymethyl-4-(2-naphthyl)spiro[2H-1-benzopyran-2,4′-piperidine]hydrochloride] | 631 | –
Cc1ccc(C2=CC3(CCN(CC(=O)O)CC3)Oc3ccccc32)cc1.Cl [Example 4, 1′-Carboxymethyl-4-(4-methylphenyl)spiro[2H-1-benzopyran-2,4′-piperidine]hydrochloride] | – | Inhibition of glycine transport by hGlyT-1, pIC50 [1]: 6.3
CN(C)c1ccc(C2=CC3(CCN(CC(=O)O)CC3)Oc3ccccc32)cc1 [Example 24, 1′-Carboxymethyl-4-[4-(N,N-dimethylamino)phenyl]spiro[2H-1-benzopyran-2,4′-piperidine]hydrochloride] | 631 | –

More lines, main results first:

IC50 [1] [nM] | Structure (SMILES) | further results
398 | CN(C)c1ccc(C2=CC3(CCN(CC(=O)O)CC3)Oc3ccccc32)cc1F [Example 37, 1′-Carboxymethyl-4-(4-dimethylamino-3-fluorophenyl)spiro[2H-1-benzopyran-2,4′-piperidine]hydrochloride] | –
251 | C#CCOc1c(F)cc(C2=CC3(CCN(CC(=O)O)CC3)Oc3ccccc32)cc1F [Example 57, 1′-Carboxymethyl-4-(3,5-difluoro-4-propargyloxyphenyl)spiro[2H-1-benzopyran-2,4′-piperidine]hydrochloride] | –
251 | C=CCOc1c(F)cc(C2=CC3(CCN(CC(=O)O)CC3)Oc3ccccc32)cc1F [Example 55, 4-(4-Allyloxy-3,5-difluorophenyl)-1′-carboxymethylspiro[2H-1-benzopyran-2,4′-piperidine]hydrochloride] | –
398 | COc1c(F)cc(C2=CC3(CCN(CC(=O)O)CC3)Oc3ccccc32)cc1F [Example 36, 1′-Carboxymethyl-4-(3,5-difluoro-4-methoxyphenyl)spiro[2H-1-benzopyran-2,4′-piperidine]hydrochloride] | –
501 | CCCOc1ccc(C2=CC3(CCN(CC(=O)O)CC3)Oc3ccccc32)cc1F [Example 48, 1′-Carboxymethyl-4-(3-fluoro-4-n-propoxyphenyl)spiro[2H-1-benzopyran-2,4′-piperidine]hydrochloride] | –
251 | O=C(O)CN1CCC2(C=C(c3cc(F)c(OCC(F)(F)F)c(F)c3)c3ccccc3O2)CC1 [Example 59, 1′-Carboxymethyl-4-(3,5-difluoro-4-trifluoroethoxyphenyl)spiro[2H-1-benzopyran-2,4′-piperidine]hydrochloride] | –
251 | CN(C)c1c(F)cc(C2=CC3(CCN(CC(=O)O)CC3)Oc3ccccc32)cc1F [Example 38, 1′-Carboxymethyl-4-(3,5-difluoro-4-dimethylaminophenyl)spiro[2H-1-benzopyran-2,4′-piperidine]hydrochloride] | –
